# Measurements as given in US7855292B2, “Sulfonamide compounds” (Janssen Pharmaceutica NV, priority 2004, dated 2010).
# Biological target: T1, CCK-1 receptor (Homo sapiens, UniProt P32238)
# T1 construct: expressed in transfected cells; host or cells: CHO-K1
# T1 sequence (P32238 1-428): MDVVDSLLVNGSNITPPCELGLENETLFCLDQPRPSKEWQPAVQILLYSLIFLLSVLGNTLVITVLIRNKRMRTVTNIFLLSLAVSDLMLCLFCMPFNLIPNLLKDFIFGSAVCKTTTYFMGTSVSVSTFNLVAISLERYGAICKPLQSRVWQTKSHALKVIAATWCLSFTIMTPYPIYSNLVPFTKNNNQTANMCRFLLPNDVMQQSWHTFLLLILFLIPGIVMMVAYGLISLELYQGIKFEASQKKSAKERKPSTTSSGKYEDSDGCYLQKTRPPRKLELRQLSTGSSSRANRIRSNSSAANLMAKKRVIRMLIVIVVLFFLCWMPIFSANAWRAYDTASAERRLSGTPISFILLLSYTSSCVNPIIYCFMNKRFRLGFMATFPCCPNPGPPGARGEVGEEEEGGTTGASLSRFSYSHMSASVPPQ
# Experiment: CCK1 binding assay ([125I]-BH-CCK-8S displacement, CHO-K1 membranes)
# Settings: membranes of CHO-K1 cells stably transfected with the CCK-1 receptor; 20 pM [125I]-BH-CCK-8S; 0.3 μM PD-134,308 present; 60 min at 21±3° C.
# In short: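 Membranes from CHO-K1 cells stably expressing CCK-1 incubated 1 h at 21±3° C with 20 pM [125I]-BH-CCK-8S in HEPES buffer pH 7.2 containing 0.3 μM PD-134,308 to block CCK-2. Bound radioactivity read by gamma counting after filtration. pKi derived via Cheng-Prusoff, with specific binding defined using 2-NAP.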
smiles,measurement,value
"O=C(N[C@@H](Cc1ccc(Cl)c(Cl)c1)C(=O)O)c1ccc(I)cc1NS(=O)(=O)c1cccc2nsnc12 [Example 2, (S)-2-[2-(Benzo[1,2,5]thiadiazole-4-sulfonylamino)-4-iodo-benzoylamino]-3-(3,4-dichloro-phenyl)-propionic acid]",CCK1 pKi,6.7
